The values that follow come from patent US9029378B2, “Substituted bicyclic aromatic carboxamide and urea compounds as vanilloid receptor ligands” (Gruenenthal GmbH, priority 2011, dated 2015).

By inhibition is commonly meant how much of the control response was suppressed. The term Ki denotes the equilibrium dissociation constant of an inhibitor or competing ligand from its target.

The test deals with T1, vanilloid receptor 1 (VR1/TRPV1 receptor) (Homo sapiens, UniProt Q8NER1).
T1 construct: expressed in transfected cells; host or cells: CHO K1
Briefly: Functional testing on the vanilloid receptor 1 (FLIPR Ca2+ influx assay, capsaicin). It counts as cell-based, human being. Particulars: for Ki: Cap=capsaicin (100 nM), Ki from IC50 by Cheng-Prusoff equation, read-out: (f) Ki (human being) [nM] Cap. The protocol:
Furthermore, preference may be given to compounds according to the invention that cause a 50 percent displacement of capsaicin, which is present at a concentration of 100 nM, in a FLIPR assay with CHO K1 cells which were transfected with the human VR1 gene at a concentration of less than 2,000 nM, preferably less than 1,000 nM, particularly preferably less than 300 nM, most particularly preferably less than 100 nM, even more preferably less than 75 nM, additionally preferably less than 50 nM, most preferably less than 10 nM.
In the process, the Ca^2+ influx is quantified in the FLIPR assay with the aid of a Ca^2+-sensitive dye (type Fluo-4, Molecular Probes Europe BV, Leiden, the Netherlands) in a fluorescent imaging plate reader (FLIPR, Molecular Devices, Sunnyvale, USA), as described hereinafter.
Pharmacological Methods I. Functional Testing Carried Out on the Vanilloid Receptor 1 (VR1/TRPV1 Receptor) […]
The number of cells in the suspension is set to 3×10^5 per mL and 150 μL of this suspension are in each case introduced into a recess in the cell culture plates coated as described hereinbefore. In the incubator the plates are left for two to three days at 37° C., 5% by volume of CO2 and 95% relative humidity. Subsequently, the cells are loaded with 2 μM of Fluo-4 and 0.01% by volume of Pluronic F127 (Molecular Probes Europe BV, Leiden, the Netherlands) in HBSS buffer (Hank's buffered saline solution, Gibco Invitrogen GmbH, Karlsruhe, Germany) for 30 min at 37° C., washed 3 times with HBSS buffer and after further incubation for 15 minutes at room temperature used for Ca^2+ measurement in a FLIPR assay. The Ca^2+-dependent fluorescence is in this case measured before and after the addition of substances (λex=488 nm, λem=540 nm). Quantification is carried out by measuring the highest fluorescence intensity (FC, fluorescence counts) over time.
The FLIPR protocol consists of 2 substance additions. First the compounds to be tested (10 μM) are pipetted onto the cells and the Ca^2+ influx is compared with the control (capsaicin 10 μM). This provides the result in % activation based on the Ca^2+ signal after the addition of 10 μM of capsaicin (CP). After 5 minutes' incubation, 100 nM of capsaicin are applied and the Ca^2+ influx is also determined.
Desensitising agonists and antagonists lead to suppression of the Ca^2+ influx. The % inhibition is calculated compared to the maximum achievable inhibition with 10 μM of capsazepine. Triple analyses (n=3) are carried out and repeated in at least 3 independent experiments (N=4). Starting from the percentage displacement caused by different concentrations of the compounds to be tested of general formula I, IC50 inhibitory concentrations which cause a 50-percent displacement of capsaicin were calculated. Ki values for the test substances were obtained by conversion by means of the Cheng-Prusoff equation (Cheng, Prusoff; Biochem. Pharmacol. 22, 3099-3108, 1973).
The affinity of the compounds of to the invention for the vanilloid receptor 1 (VR1/TRPV1 receptor) was determined as described hereinbefore (pharmacological method I). The compounds of the invention display outstanding affinity to the VR1/TRPV1 receptor (Table 2). In Table 2 the abbreviations below have the following meanings: • Cap=capsaicin • AG=agonist • NE=no effect
The value after the “@” symbol indicates the concentration at which the inhibition (as a percentage) was respectively determined.

T1 sequence (Q8NER1 whole entry): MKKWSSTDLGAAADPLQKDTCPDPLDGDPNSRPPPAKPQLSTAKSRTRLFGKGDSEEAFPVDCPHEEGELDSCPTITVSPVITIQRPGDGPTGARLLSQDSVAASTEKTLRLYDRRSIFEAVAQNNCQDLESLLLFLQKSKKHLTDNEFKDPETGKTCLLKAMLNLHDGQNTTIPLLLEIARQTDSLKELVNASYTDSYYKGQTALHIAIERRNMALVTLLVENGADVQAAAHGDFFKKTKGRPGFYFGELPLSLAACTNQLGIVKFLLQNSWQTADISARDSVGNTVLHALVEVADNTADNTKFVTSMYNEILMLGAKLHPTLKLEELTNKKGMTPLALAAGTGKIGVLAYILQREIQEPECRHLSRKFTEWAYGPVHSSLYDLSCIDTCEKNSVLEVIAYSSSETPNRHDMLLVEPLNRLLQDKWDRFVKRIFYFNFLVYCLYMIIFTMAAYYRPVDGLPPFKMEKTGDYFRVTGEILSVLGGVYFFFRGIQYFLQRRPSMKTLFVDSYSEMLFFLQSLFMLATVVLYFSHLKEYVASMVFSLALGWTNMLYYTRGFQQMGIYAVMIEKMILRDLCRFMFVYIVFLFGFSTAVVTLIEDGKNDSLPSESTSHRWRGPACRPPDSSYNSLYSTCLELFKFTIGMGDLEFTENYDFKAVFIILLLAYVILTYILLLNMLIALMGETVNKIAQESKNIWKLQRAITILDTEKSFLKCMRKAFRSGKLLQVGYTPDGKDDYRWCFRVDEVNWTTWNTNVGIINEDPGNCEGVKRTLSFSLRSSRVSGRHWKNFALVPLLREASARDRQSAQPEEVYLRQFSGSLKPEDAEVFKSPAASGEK

With `CC1CCN(c2nc(C(F)(F)F)ccc2CNC(=O)Nc2cccc3cc[nH]c23)CC1` [Example 36, 1-(1H-Indol-7-yl)-3-((2-(4-methylpiperidin-1-yl)-6-(trifluoromethyl)pyridin-3-yl)methyl)urea], under “@0.1 μM, Cap=capsaicin, read-out: inhibition (as a percentage), (f) (human being) Cap”, the inhibition at 0.1 µM amounted to 37%.
With `Cc1[nH]c2c(NC(=O)NCc3ccc(C(F)(F)F)nc3N3CCC(C)CC3)cccc2c1C` [Example 37, 1-(2,3-Dimethyl-1H-indol-7-yl)-3-((2-(4-methylpiperidin-1-yl)-6-(trifluoromethyl)pyridin-3-yl)methyl)urea], the Ki was 4 nM.
In the case of `CC1CCN(c2nc(C(F)(F)F)ccc2CNC(=O)Nc2cccc3[nH]ccc23)CC1` [Example 38, 1-(1H-Indol-4-yl)-3-((2-(4-methylpiperidin-1-yl)-6-(trifluoromethyl)pyridin-3-yl)methyl)urea], the inhibition constant (Ki) turned out to be 1 nM.
On the same count and under the same terms, the value for `CN(C)C1(c2ccccc2)CCN(c2nc(C(F)(F)F)ccc2CNC(=O)Nc2cccc3[nH]ccc23)CC1` [Example 39, 1-((2-(4-(Dimethylamino)-4-phenylpiperidin-1-yl)-6-(trifluoromethyl)pyridin-3-yl)methyl)-3-(1H-indol-4-yl)urea] was 8 nM; that for `CC1CCN(c2nc(C(F)(F)F)ccc2CNC(=O)Nc2cccc3c2ccn3C)CC1` [Example 40, 1-(1-Methyl-1H-indol-4-yl)-3-((2-(4-methylpiperidin-1-yl)-6-(trifluoromethyl)pyridin-3-yl)methyl)urea] was 5 nM; that for `CC(=O)n1ccc2c(NC(=O)NCc3ccc(C(F)(F)F)nc3N3CCC(C)CC3)cccc21` [Example 41, 1-(1-Acetyl-1H-indol-4-yl)-3-((2-(4-methylpiperidin-1-yl)-6-(trifluoromethyl)pyridin-3-yl)methyl)urea] was 8 nM.
Take `CC1CCN(c2nc(C(F)(F)F)ccc2CNC(=O)Nc2cccc3c2ccn3S(C)(=O)=O)CC1` [Example 42, 1-((2-(4-Methylpiperidin-1-yl)-6-(trifluoromethyl)pyridin-3-yl)methyl)-3-(1-(methylsulfonyl)-1H-indol-4-yl)urea]: the inhibition constant (Ki) is 2 nM.
`CC1CCN(c2nc(C(F)(F)F)ccc2CNC(=O)Nc2cccc3[nH]c(C(C)(C)C)cc23)CC1` [Example 43, 1-(2-Tert-butyl-1H-indol-4-yl)-3-((2-(4-methylpiperidin-1-yl)-6-(trifluoromethyl)pyridin-3-yl)methyl)urea]: the Ki was 8 nM.
In the case of `CC1CCN(c2nc(C(F)(F)F)ccc2CNC(=O)Nc2cccc3[nH]ncc23)CC1` [Example 44, 1-(1H-indazol-4-yl)-3-((2-(4-methylpiperidin-1-yl)-6-(trifluoromethyl)pyridin-3-yl)methyl)urea], the Ki stood at 0.4 nM.
Turning to `CN(C)C1(c2ccccc2)CCN(c2nc(C(F)(F)F)ccc2CNC(=O)Nc2cccc3[nH]ncc23)CC1` [Example 45, 1-((2-(4-(dimethylamino)-4-phenylpiperidin-1-yl)-6-(trifluoromethyl)pyridin-3-yl)methyl)-3-(1H-indazol-4-yl)urea], the inhibitory constant (Ki) was 7 nM.
Same read-out and setting: with `CC1CCN(c2nc(C(F)(F)F)ccc2CNC(=O)Nc2cccc3c2cnn3C)CC1` [Example 46, 1-(1-Methyl-1H-indazol-4-yl)-3-((2-(4-methylpiperidin-1-yl)-6-(trifluoromethyl)pyridin-3-yl)methyl)urea] the figure was 0.5 nM; with `CCCCOc1nc(C(F)(F)F)ccc1CNC(=O)Nc1cccc2c1cnn2C` [Example 47, 1-((2-Butoxy-6-(trifluoromethyl)pyridin-3-yl)methyl)-3-(1-methyl-1H-indazol-4-yl)urea], 3 nM; with `Cn1ncc2c(NC(=O)NCc3ccc(C(F)(F)F)nc3OCC3CCC3)cccc21` [Example 48, 1-((2-(Cyclobutylmethoxy)-6-(trifluoromethyl)pyridin-3-yl)methyl)-3-(1-methyl-1H-indazol-4-yl)urea], 2 nM.
With `CC(=O)n1ncc2c(NC(=O)NCc3ccc(C(F)(F)F)nc3N3CCC(C)CC3)cccc21` [Example 49, 1-(1-Acetyl-1H-indazol-4-yl)-3-((2-(4-methylpiperidin-1-yl)-6-(trifluoromethyl)pyridin-3-yl)methyl)urea], the Ki worked out at 13 nM.
Consider `CC1CCN(c2nc(C(F)(F)F)ccc2CNC(=O)Nc2cc(F)cc3[nH]ncc23)CC1` [Example 51, 1-(6-Fluoro-1H-indazol-4-yl)-3-((2-(4-methylpiperidin-1-yl)-6-(trifluoromethyl)pyridin-3-yl)methyl)urea], for which the inhibition constant Ki came out at 3 nM.
Take `CC1CCN(c2nc(C(C)(C)C)ccc2CNC(=O)Nc2cc(F)cc3[nH]ncc23)CC1` [Example 52, 1-((6-Tert-butyl-2-(4-methylpiperidin-1-yl)pyridin-3-yl)methyl)-3-(6-fluoro-1H-indazol-4-yl)urea]: the inhibition constant (Ki) worked out at 2 nM.
With `CC1CCN(c2cc(C(F)(F)F)ccc2CNC(=O)Nc2cc(F)cc3[nH]ncc23)CC1` [Example 53, 1-(6-Fluoro-1H-indazol-4-yl)-3-(2-(4-methylpiperidin-1-yl)-4-(trifluoromethyl)benzyl)urea], the Ki is 1 nM.
As for `O=C(NCc1ccc(C(F)(F)F)cc1C1CCCC1)Nc1cc(F)cc2[nH]ncc12` [Example 54, 1-(2-Cyclopentyl-4-(trifluoromethyl)benzyl)-3-(6-fluoro-1H-indazol-4-yl)urea], the inhibition constant Ki was determined as 7 nM.
Same read-out and setting: with `CC1CCN(c2nc(C(F)(F)F)ccc2CNC(=O)Nc2cc(Cl)cc3[nH]ncc23)CC1` [Example 55, 1-(6-Chloro-1H-indazol-4-yl)-3-((2-(4-methylpiperidin-1-yl)-6-(trifluoromethyl)pyridin-3-yl)methyl)urea] the figure was 4 nM.
Take `Cc1cc(NC(=O)NCc2ccc(C(F)(F)F)nc2N2CCC(C)CC2)c2cn[nH]c2c1` [Example 56, 1-(6-Methyl-1H-indazol-4-yl)-3-((2-(4-methylpiperidin-1-yl)-6-(trifluoromethyl)pyridin-3-yl)methyl)urea]: the inhibition at 5 µM (@5 μM, Cap=capsaicin, read-out: inhibition (as a percentage), (f) (human being) Cap) was 45%.
On to `CC1CCN(c2nc(C(F)(F)F)ccc2CNC(=O)Nc2c(Cl)ccc3[nH]ncc23)CC1` [Example 57, 1-(5-Chloro-1H-indazol-4-yl)-3-((2-(4-methylpiperidin-1-yl)-6-(trifluoromethyl)pyridin-3-yl)methyl)urea], for which the inhibition constant Ki was 3 nM.
On the same count and under the same terms, with `CC1CCN(c2nc(C(F)(F)F)ccc2CNC(=O)Nc2cccc3[nH]cnc23)CC1` [Example 58, 1-(1H-Benzo[d]imidazol-4-yl)-3-((2-(4-methylpiperidin-1-yl)-6-(trifluoromethyl)pyridin-3-yl)methyl)urea] the figure was 3 nM; with `CC1CCN(c2nc(C(F)(F)F)ccc2CNC(=O)Nc2cccc3scnc23)CC1` [Example 59, 1-(Benzo[d]thiazol-4-yl)-3-((2-(4-methylpiperidin-1-yl)-6-(trifluoromethyl)pyridin-3-yl)methyl)urea], 18 nM.
For `CC1CCN(c2nc(C(F)(F)F)ccc2CNC(=O)Nc2cccc3ncsc23)CC1` [Example 60, 1-(Benzo[d]thiazol-7-yl)-3-((2-(4-methylpiperidin-1-yl)-6-(trifluoromethyl)pyridin-3-yl)methyl)urea], the Ki came out at 1 nM.
On to `CC1CCN(c2cc(C(C)(C)C)ccc2CNC(=O)Nc2cccc3ncccc23)CC1` [Example 62, 1-(4-Tert-butyl-2-(4-methylpiperidin-1-yl)benzyl)-3-(quinolin-5-yl)urea], for which the Ki was found to be 1 nM.
Same read-out and setting: the value for `CC1CCN(c2cc(C(F)(F)F)ccc2CNC(=O)Nc2cccc3ncccc23)CC1` [Example 63, 1-(2-(4-Methylpiperidin-1-yl)-4-(trifluoromethyl)benzyl)-3-(quinolin-5-yl)urea] was 0.7 nM.
